Experiments:
APP α-processing [1] = assay: APP secretion assay (sAPPα release, Western blotting) in SH-SY5Y cells; format: cell-based, human; details: for effect on APP α-processing / APP secretion (in words) / sAPPα release relative to basal line: 2 hours; for effect on APP α-processing / APP secretion (in words): compared with ATP, acetyl-coA, PCr; for sAPPα release relative to basal line: 1 mM each
Protocol: (§1) SH-SY5Y and fibroblast cells were routinely maintained in DMEM supplemented with 10% bovine fetal serum and 100 μg/ml of streptomycine and 100 U/ml of penicillin. For APP secretion assay, the cells were subcultured in the 12-well plate until confluence and then pre-incubated in the serum-free DMEM for 1 hour before the addition of the testing agents. After incubation for 2 hours at 37° C., conditioned medium was collected and cleared by centrifugation. Proteins were precipitated by trichloroacetic acid and processed for gel electrophoresis and Western blotting as described previously (Weidemann et al. 1989; Chen and Fernandez, 2004). A near-infrared dye-conjugated secondary antibody (LI-COR Biosci., NE, USA) was used and visualized with a LI-COR Odyssey Infrared Imaging System.

SH-SY5Y cells = assay: Cell survival and viability MTT assay / microscopy in SH-SY5Y cells; format: cell-based; details: for cell survival, of the untreated control, rotenone-induced death: 2 days, pre-incubation 1 mM each; for cell survival, of the control, H2O2-induced death: 0.6 mM H2O2, by 20 hours, pre-treatment 1 mM each; for cell survival in H2O2-induced death (in words): H2O2 (not shown)
Protocol: SH-SY5Y cells were subcultured in the 12-well plate in DMEM containing 10% fetal bovine serum until 50% confluency. For experiment, the medium was replaced with serum-free DMEM and testing agents were added. The culture was continued in the incubator and parallel samples were taken out at various time intervals for microscopic examination or cell viability assay using an MTT toxicity assay kit (Sigma, Mo.) according to the manufacturer's instructions with modifications (Chen and Fernandez, 2004).

APP α-processing [2] = assay: APP secretion assay (sAPPα release) in human skin fibroblasts from young and aged donors; format: cell-based; details: for sAPPα release in aged cells, of the young cell level: aged human skin fibroblasts (donor age 81-96), 0.5 mM each, untreated aged cells 42.5%; for sAPPα level, of the control, co-treatment with rotenone: 0.2 μM rotenone two hours; for sAPPα level, of the control, co-treatment with rotenone / sAPPα level, of the control, co-treatment with H2O2: co-treatment 1.5 mM each; for sAPPα level, of the control, co-treatment with H2O2: 0.2 mM H2O2 two hours
Protocol: as §1

CN(CC(=O)O)C(=N)N [Cr, creatine, reference compound]
effect on APP α-processing / APP secretion (in words) (APP α-processing [1]): did not show the same effects

N[C@@H](CCC(=O)O)C(=O)O [glutamate, reference compound]
sAPPα release relative to basal line (APP α-processing [1]): 2.3 fold

CC(C)(COP(=O)(O)OP(=O)(O)OC[C@H]1O[C@@H](n2cnc3c(N)ncnc32)[C@H](O)[C@@H]1OP(=O)(O)O)[C@@H](O)C(=O)NCCC(=O)NCCS [CoA, coenzyme A, reference compound]
effect on APP α-processing / APP secretion (in words) (APP α-processing [1]): did not show the same effects

Nc1ncnc2c1ncn2[C@@H]1O[C@H](COP(=O)(O)OP(=O)(O)O)[C@@H](O)[C@H]1O [ADP, adenosine diphosphate, reference compound]
effect on APP α-processing / APP secretion (in words) (APP α-processing [1]): did not show the same effects

CN(CC(=O)O)C(=N)NP(=O)(O)O [PCr, phosphocreatine]
cell survival, of the untreated control, rotenone-induced death (SH-SY5Y cells; 0.2 μM rotenone, MTT): 42% | cell survival, of the control, H2O2-induced death (SH-SY5Y cells): 49% | sAPPα release relative to basal line (APP α-processing [1]): 4.2 fold | sAPPα release in aged cells, of the young cell level (APP α-processing [2]): 79.6%

C=C(C)[C@H]1Cc2c(ccc3c2O[C@@H]2COc4cc(OC)c(OC)cc4[C@@H]2C3=O)O1 [rotenone, reference compound]
cell death caused by rotenone alone (SH-SY5Y cells; 0.2 μM rotenone, MTT): caused all cells to die by 2 days | sAPPα level, of the control, rotenone alone (APP α-processing [2]; young fibroblasts, 0.2 μM rotenone, two hours): 52.3%

Nc1ncnc2c1ncn2[C@@H]1O[C@H](COP(=O)(O)OP(=O)(O)OP(=O)(O)O)[C@@H](O)[C@H]1O [ATP, adenosine triphosphate]
cell survival, of the untreated control, rotenone-induced death (SH-SY5Y cells; 0.2 μM rotenone, MTT): 15% | cell survival in H2O2-induced death (in words) (SH-SY5Y cells): moderately increased cell survival | sAPPα release relative to basal line (APP α-processing [1]): 3.3 fold | EC50 (APP α-processing [1]; Homo sapiens, read-out: EC50 for promoting sAPPα release): 480 µM | stimulatory effect on sAPPα release in the presence of NaN3 (APP α-processing [1]; NaN3 25 mM pre-incubated 15 minutes): completely abolished | stimulatory effect on sAPPα release in the presence of rotenone (APP α-processing [1]; rotenone 20 μM pre-incubated 15 minutes): completely abolished | sAPPα release in aged cells, of the young cell level (APP α-processing [2]): 82.3% | sAPPα level, of the control, co-treatment with rotenone (APP α-processing [2]; young fibroblasts): 79.2% | sAPPα level, of the control, co-treatment with H2O2 (APP α-processing [2]; young fibroblasts): 89.3%

C=C(OP(=O)(O)O)C(=O)O [PEP, phosphoenol pyruvate]
cell survival, of the untreated control, rotenone-induced death (SH-SY5Y cells; 0.2 μM rotenone, MTT): 53% | cell morphology under microscopy, rotenone-induced death (SH-SY5Y cells; 0.2 μM rotenone, pre-incubation 1 mM for 30 min): substantially preserved the cell shape and the processes | cell survival, of the control, H2O2-induced death (SH-SY5Y cells): 38% | sAPPα level, of the control, co-treatment with rotenone (APP α-processing [2]; young fibroblasts): 90.3%

Nc1nc2c(ncn2[C@@H]2O[C@H](COP(=O)(O)OP(=O)(O)OP(=O)(O)O)[C@@H](O)[C@H]2O)c(=O)[nH]1 [GTP, guanosine triphosphate]
cell survival, of the untreated control, rotenone-induced death (SH-SY5Y cells; 0.2 μM rotenone, MTT): 17% | cell survival in H2O2-induced death (in words) (SH-SY5Y cells): moderately increased cell survival

CC(=O)SCCNC(=O)CCNC(=O)[C@H](O)C(C)(C)COP(=O)(O)OP(=O)(O)OC[C@H]1O[C@@H](n2cnc3c(N)ncnc32)[C@H](O)[C@@H]1OP(=O)(O)O [acetyl-coA, acetyl coenzyme A]
cell survival, of the untreated control, rotenone-induced death (SH-SY5Y cells; 0.2 μM rotenone, MTT): 35% | cell survival, of the control, H2O2-induced death (SH-SY5Y cells): 21% | sAPPα release relative to basal line (APP α-processing [1]): 3.8 fold | sAPPα level, of the control, co-treatment with H2O2 (APP α-processing [2]; young fibroblasts): 74.5%

OO [H2O2, reference compound]
cell death caused by H2O2 alone (SH-SY5Y cells; 0.6 mM H2O2): killed all cells by 10 hours | sAPPα release, of the young cell control, H2O2 alone (APP α-processing [2]; young fibroblasts, 0.2 mM H2O2, two hours): 46.1%

Source: patent US20140044690A1, “High-Energy Compounds for Use in Alzheimer's and Other Neurodegenerative Diseases” (University Of South Florida, priority 2012, published 2014)
